Laboratory results reported in the NIST ThermoML archive (doi:10.1007/s10765-006-0080-z).
Numbers after ± are expanded uncertainties.

What was measured:
[1] = for thermal diffusivity: 101.33 kPa, Laser flash
[2] = molar heat capacity at constant pressure; conditions: 101.33 kPa, Laser pulse heating

Molecule `[Zr]` [zirconium] has a thermal diffusivity ([1]; 289 K, Crystal 2) of 1.25e-05 ± 1.7e-06 m2/s, a thermal diffusivity ([1]; 327 K, Crystal 2) of 1.17e-05 ± 7e-07 m2/s and a thermal diffusivity ([1]; 379 K, Crystal 2) of 1.11e-05 ± 4e-07 m2/s. It also gave a thermal diffusivity ([1]; 423 K, Crystal 2) of 1.07e-05 ± 5e-07 m2/s, a thermal diffusivity ([1]; 473 K, Crystal 2) of 1.03e-05 ± 2e-07 m2/s and a thermal diffusivity ([1]; 524 K, Crystal 2) of 1.01e-05 ± 6e-07 m2/s. For the same molecule, the thermal diffusivity ([1]; 569 K, Crystal 2) was 9.95e-06 ± 2e-07 m2/s, the thermal diffusivity ([1]; 621 K, Crystal 2) was 9.84e-06 ± 8e-07 m2/s and the thermal diffusivity ([1]; 670 K, Crystal 2) was 9.74e-06 ± 7e-07 m2/s. The thermal diffusivity ([1]; 715 K, Crystal 2) was 9.76e-06 ± 5e-07 m2/s, the thermal diffusivity ([1]; 772 K, Crystal 2) was 9.89e-06 ± 6e-07 m2/s and the thermal diffusivity ([1]; 827 K, Crystal 2) was 9.97e-06 ± 5e-07 m2/s. For the same molecule, the thermal diffusivity ([1]; 872 K, Crystal 2) was 1.01e-05 ± 1.2e-06 m2/s, the thermal diffusivity ([1]; 923 K, Crystal 2) was 1.02e-05 ± 2e-07 m2/s and the thermal diffusivity ([1]; 970 K, Crystal 2) was 1.03e-05 ± 1.6e-06 m2/s. It also gave a thermal diffusivity ([1]; 1023 K, Crystal 2) of 1.05e-05 ± 6e-07 m2/s, a thermal diffusivity ([1]; 1068 K, Crystal 2) of 1.06e-05 ± 8e-07 m2/s and a thermal diffusivity ([1]; 1121 K, Crystal 2) of 9.27e-06 ± 9e-07 m2/s. For the same molecule, the thermal diffusivity ([1]; 1132 K, Crystal 2) was 8.29e-06 ± 1.7e-06 m2/s, the thermal diffusivity ([1]; 1143 K, Crystal 1) was 7.99e-06 m2/s and the thermal diffusivity ([1]; 1150 K, Crystal 1) was 1.09e-05 ± 2.3e-06 m2/s. For the same molecule, the thermal diffusivity ([1]; 1177 K, Crystal 1) was 1.41e-05 ± 5e-07 m2/s, the thermal diffusivity ([1]; 1218 K, Crystal 1) was 1.43e-05 ± 9e-07 m2/s and the thermal diffusivity ([1]; 1272 K, Crystal 1) was 1.48e-05 ± 3e-07 m2/s. The thermal diffusivity ([1]; 1317 K, Crystal 1) was 1.5e-05 ± 1.9e-06 m2/s, the thermal diffusivity ([1]; 1370 K, Crystal 1) was 1.51e-05 ± 8e-07 m2/s and the thermal diffusivity ([1]; 1431 K, Crystal 1) was 1.57e-05 ± 1.8e-06 m2/s. The thermal diffusivity ([1]; 1468 K, Crystal 1) was 1.57e-05 ± 2.3e-06 m2/s, the Triple point temperature ([1]; Crystal 2, Laser pulse heating) was 1141.4 ± 10 K and the “molar heat capacity at constant pressure” value ([2]; 293 K, Crystal 2) was 26.31 ± 1.7 J/K/mol. For the same molecule, the “molar heat capacity at constant pressure” value ([2]; 323 K, Crystal 2) was 26.57 ± 1.4 J/K/mol, the “molar heat capacity at constant pressure” value ([2]; 373 K, Crystal 2) was 26.89 ± 0.97 J/K/mol and the “molar heat capacity at constant pressure” value ([2]; 423 K, Crystal 2) was 27.31 ± 0.9 J/K/mol. The “molar heat capacity at constant pressure” value ([2]; 473 K, Crystal 2) was 27.78 ± 0.88 J/K/mol, the “molar heat capacity at constant pressure” value ([2]; 523 K, Crystal 2) was 28.27 ± 0.88 J/K/mol and the “molar heat capacity at constant pressure” value ([2]; 573 K, Crystal 2) was 28.82 ± 0.89 J/K/mol. The “molar heat capacity at constant pressure” value ([2]; 623 K, Crystal 2) was 29.33 ± 0.91 J/K/mol, the “molar heat capacity at constant pressure” value ([2]; 673 K, Crystal 2) was 29.88 ± 0.93 J/K/mol and the “molar heat capacity at constant pressure” value ([2]; 723 K, Crystal 2) was 30.6 ± 0.95 J/K/mol. The “molar heat capacity at constant pressure” value ([2]; 773 K, Crystal 2) was 31.24 ± 0.94 J/K/mol, the “molar heat capacity at constant pressure” value ([2]; 823 K, Crystal 2) was 31.87 ± 0.96 J/K/mol and the “molar heat capacity at constant pressure” value ([2]; 873 K, Crystal 2) was 32.53 ± 0.98 J/K/mol. The “molar heat capacity at constant pressure” value ([2]; 923 K, Crystal 2) was 33.26 ± 0.99 J/K/mol, the “molar heat capacity at constant pressure” value ([2]; 973 K, Crystal 2) was 33.94 ± 1 J/K/mol and the “molar heat capacity at constant pressure” value ([2]; 1023 K, Crystal 2) was 34.6 ± 1 J/K/mol. For the same molecule, the “molar heat capacity at constant pressure” value ([2]; 1073 K, Crystal 2) was 35.23 ± 1.1 J/K/mol, the “molar heat capacity at constant pressure” value ([2]; 1083 K, Crystal 2) was 35.42 ± 1.1 J/K/mol and the “molar heat capacity at constant pressure” value ([2]; 1093 K, Crystal 2) was 35.84 ± 1.3 J/K/mol. The “molar heat capacity at constant pressure” value ([2]; 1103 K, Crystal 2) was 36.88 ± 1.6 J/K/mol, the “molar heat capacity at constant pressure” value ([2]; 1113 K, Crystal 2) was 39.48 ± 2.2 J/K/mol and the “molar heat capacity at constant pressure” value ([2]; 1123 K, Crystal 2) was 43.12 ± 3.2 J/K/mol. The “molar heat capacity at constant pressure” value ([2]; 1128 K, Crystal 2) was 45.62 ± 4 J/K/mol, the “molar heat capacity at constant pressure” value ([2]; 1133 K, Crystal 2) was 49.09 ± 5.3 J/K/mol and the “molar heat capacity at constant pressure” value ([2]; 1138 K, Crystal 2) was 61.42 ± 8.2 J/K/mol. For the same molecule, the “molar heat capacity at constant pressure” value ([2]; 1143 K, Crystal 1) was 52.29 ± 5.5 J/K/mol, the “molar heat capacity at constant pressure” value ([2]; 1148 K, Crystal 1) was 42.04 ± 5.6 J/K/mol and the “molar heat capacity at constant pressure” value ([2]; 1153 K, Crystal 1) was 33.83 ± 4.4 J/K/mol. For the same molecule, the “molar heat capacity at constant pressure” value ([2]; 1163 K, Crystal 1) was 31 ± 2.9 J/K/mol, the “molar heat capacity at constant pressure” value ([2]; 1173 K, Crystal 1) was 29.58 ± 1.8 J/K/mol and the “molar heat capacity at constant pressure” value ([2]; 1223 K, Crystal 1) was 29.71 ± 0.89 J/K/mol. The “molar heat capacity at constant pressure” value ([2]; 1273 K, Crystal 1) was 30.06 ± 0.9 J/K/mol, the “molar heat capacity at constant pressure” value ([2]; 1323 K, Crystal 1) was 30.23 ± 0.9 J/K/mol and the “molar heat capacity at constant pressure” value ([2]; 1373 K, Crystal 1) was 30.3 ± 0.91 J/K/mol. For the same molecule, the “molar heat capacity at constant pressure” value ([2]; 1423 K, Crystal 1) was 30.53 ± 0.91 J/K/mol, the “molar heat capacity at constant pressure” value ([2]; 1473 K, Crystal 1) was 30.72 ± 0.92 J/K/mol and the “molar heat capacity at constant pressure” value ([2]; 1523 K, Crystal 1) was 30.91 ± 0.93 J/K/mol. For the same molecule, the “molar heat capacity at constant pressure” value ([2]; 1573 K, Crystal 1) was 31.36 ± 0.94 J/K/mol, the “molar heat capacity at constant pressure” value ([2]; 1623 K, Crystal 1) was 31.34 ± 0.94 J/K/mol and the “molar heat capacity at constant pressure” value ([2]; 1673 K, Crystal 1) was 31.59 ± 0.95 J/K/mol. For the same molecule, the “molar heat capacity at constant pressure” value ([2]; 1723 K, Crystal 1) was 32.07 ± 0.96 J/K/mol, the “molar heat capacity at constant pressure” value ([2]; 1773 K, Crystal 1) was 32.8 ± 0.99 J/K/mol and the “molar heat capacity at constant pressure” value ([2]; 1823 K, Crystal 1) was 33.31 ± 1 J/K/mol. For the same molecule, the “molar heat capacity at constant pressure” value ([2]; 1873 K, Crystal 1) was 33.5 ± 1 J/K/mol, the “molar heat capacity at constant pressure” value ([2]; 1923 K, Crystal 1) was 33.68 ± 1 J/K/mol and the “molar heat capacity at constant pressure” value ([2]; 1973 K, Crystal 1) was 34.23 ± 1 J/K/mol.
